Measurements reported in patent publication US20230286906A1, “CANNABINOID DERIVATIVES” (CANOPY GROWTH CORPORATION, priority 2019, published 2023).
Like-named read-outs stand apart in the source and are kept apart here.

Assays:
human CB1 receptor = molecular target: T1, human CB1 receptor (Homo sapiens, UniProt P21554); test: CB1 radioligand ([3H]CP 55,940) competitive binding assay
T1 construct: host or cells: CHO-K1 (Chinese hamster ovary) cells, stably transfected; membranes prepared in house

human CB2 receptor = molecular target: T2, human CB2 receptor (Homo sapiens, UniProt P34972); test: CB2 radioligand ([3H]CP 55,940) competitive binding assay; settings: for Selectivity CB2: fold difference in selectivity between CB1 and CB2 binding, shown in the column of the receptor with higher affinity
T2 construct: host or cells: CHO-K1 (Chinese hamster ovary) cells, stably transfected; membranes prepared in house
Method: Compounds of the present disclosure were tested for CB1 receptor binding affinity and for CB2 receptor binding affinity. As used herein, “binding affinity” is represented by the IC50 value, which was experimentally determined as described herein. The lower the IC50 value the higher the binding affinity. A compound of the present disclosure may be said to have “binding selectivity” if it has a higher binding affinity for one receptor compared to the other.
The membranes were prepared from CHO-K1 (Chinese hamster ovary) cells stably transfected with the human CB2 receptor (Cat. #ES-111-C; Perkin Elmer, Boston, Mass.). The cells were grown adherently and maintained in Ham's F12 medium containing 10% fetal bovine serum (FBS), penicillin, streptomycin and geneticin (G418) at 37° C. in a humid atmosphere of 5% CO2 following the manufacturer's instructions.
For membrane preparation the cells were washed with PBS and scraped off the plates in cold homogenization buffer (25 mM HEPES (pH 7.4), 2 mM EDTA) containing protease inhibitor cocktail (Sigma Cat. #P8340). The cell suspension was homogenized with a Pro-PK-01200D Polytron Homogenizer (Pro Scientific) and then centrifuged for 30 min at 120,000×g. The supernatant was discarded and the pellet was re-suspended in the homogenization buffer and stored at −80° C. until the time of use.
In this experiment, 3H radiolabeled CP 55,940, i.e. [3H]CP 55,940 (Perkin Elmer, Boston, Mass.), was used as a radioligand for the CB2 receptor to determine the binding affinity of compounds for the CB2 receptor (Scheme 4; above).
The competition binding experiments (single dose and dose-response) were performed by incubating 0.6 nM of [3H]CP55,940 (specific activity 101 Ci/mmol, Perkin Elmer) and different concentrations of compounds disclosed herein with membranes prepared as above from CHO-K1 cells expressing human CB2 receptor (1 μg of protein/well), 50 mM Tris-HCl (pH 7.4), 5 mM MgCl2, 1 mM CaCl2, and 2 mg/mL BSA.
For the single dose experiments, the compound stocks (usually 10 mM in DMSO) were diluted to working stocks in the binding buffer to give the final compound concentrations of 10 μM and 1 μM. For the dose-response experiments the test compounds were sequentially diluted to provide the desired concentration range for the IC50 determination. In each case the compounds were pre-incubated with the membrane for 20 min, before adding the radioligand.
After incubation with the radioligand for 60 min at 37° C., the incubation was terminated by rapid filtration of assay mixture through MultiScreen®HTS^+ 96-well filter plates (Millipore, Cat. #MSFCNXB), pre-soaked for 60 min with 50 mM Tris-HCl (pH 7.4) containing 0.33% polyethylenimine (PEI). The nonspecific binding (NSB) was determined in the presence of 10 μM unlabelled CP55,940. After drying the filter plate at 50° C. for at least 60 min, the filter-bound radioactivity was determined by scintillation spectrometry using the 1450 MicroBeta Plate Counter (Perkin Elmer, Boston, Mass.). From the dose-response experiments, the IC50 values were determined (see Table 1, CB2 IC50).

[1] = displacement of 0.8 nM [3H]CP 55,940, CHO-K1 membranes expressing human CB1, read-out: CB1 IC50
[2] = displacement of 0.6 nM [3H]CP55,940, CHO-K1 membranes expressing human CB2, read-out: CB2 IC50

T2 sequence (P34972 whole entry): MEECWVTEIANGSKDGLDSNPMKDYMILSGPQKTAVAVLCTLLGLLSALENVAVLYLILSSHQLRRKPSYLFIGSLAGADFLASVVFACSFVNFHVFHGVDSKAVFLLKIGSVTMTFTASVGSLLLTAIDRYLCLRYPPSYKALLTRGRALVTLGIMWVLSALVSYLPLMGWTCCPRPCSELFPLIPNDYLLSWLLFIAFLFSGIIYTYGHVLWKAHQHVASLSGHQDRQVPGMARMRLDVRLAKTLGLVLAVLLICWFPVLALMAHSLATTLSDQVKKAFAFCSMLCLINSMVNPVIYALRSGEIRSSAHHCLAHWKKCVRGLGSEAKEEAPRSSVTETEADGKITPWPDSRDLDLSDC
T1 sequence (P21554 whole entry): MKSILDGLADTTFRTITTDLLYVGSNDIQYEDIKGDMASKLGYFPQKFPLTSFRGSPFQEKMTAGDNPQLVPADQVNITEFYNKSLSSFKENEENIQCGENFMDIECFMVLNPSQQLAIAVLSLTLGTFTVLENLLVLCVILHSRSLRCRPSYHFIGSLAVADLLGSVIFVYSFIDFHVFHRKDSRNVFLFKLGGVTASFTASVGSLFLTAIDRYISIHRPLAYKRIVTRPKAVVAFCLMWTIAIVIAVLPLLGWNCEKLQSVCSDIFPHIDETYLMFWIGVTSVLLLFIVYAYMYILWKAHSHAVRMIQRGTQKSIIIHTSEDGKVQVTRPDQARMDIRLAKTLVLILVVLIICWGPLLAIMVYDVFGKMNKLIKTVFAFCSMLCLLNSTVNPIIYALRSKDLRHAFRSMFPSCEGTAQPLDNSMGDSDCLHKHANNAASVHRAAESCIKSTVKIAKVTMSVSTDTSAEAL

**Q.** Which results are given for `CCCCCc1cc(O)c(C/C=C(\C)CCC=C(C)C)c(O)c1C(=O)NC` [Compound 1, 3-(3,7-dimethylocta-2,6-dien-1-yl)-2,4-dihydroxy-N-methyl-6-pentylbenzamide]?
**A.** IC50 (human CB1 receptor; [1]): > 5 µM; IC50 (human CB2 receptor; [2]): 1 to 4.99 µM; Selectivity CB2 (human CB2 receptor): 4.06

**Q.** For `CCCCCc1cc(O)c(C/C=C(\C)CCC=C(C)C)c(O)c1C(=O)NC1CC1` [Compound 6, N-cyclopropyl-3-(3,7-dimethylocta-2,6-dien-1-yl)-2,4-dihydroxy-6-pentylbenzamide], which IC50 (human CB1 receptor; [1]) is on record?
**A.** 1 to 4.99 µM

**Q.** What about the IC50 (human CB2 receptor; [2]) of the same compound?
**A.** 1 to 4.99 µM

**Q.** What about the “Selectivity CB2” value (human CB2 receptor) of the same compound?
**A.** 3.41

**Q.** Which IC50 (human CB1 receptor; [1]) does the source give for `CCCCCc1cc(O)c(C/C=C(\C)CCC=C(C)C)c(O)c1C(=O)Nc1ccccc1` [Compound 10, 3-(3,7-dimethylocta-2,6-dien-1-yl)-2,4-dihydroxy-6-pentyl-N-phenylbenzamide] here?
**A.** > 5 µM

**Q.** And the IC50 (human CB2 receptor; [2])?
**A.** 1 to 4.99 µM

**Q.** What about the “Selectivity CB2” value (human CB2 receptor) of the same compound?
**A.** 4.86

**Q.** For `CCCCCc1cc(O)c(C/C=C(\C)CCC=C(C)C)c(O)c1C(=O)Nc1ccc(OC)cc1` [Compound 11, 3-(3,7-dimethylocta-2,6-dien-1-yl)-2,4-dihydroxy-N-(4-methoxyphenyl)-6-pentylbenzamide], which IC50 (human CB1 receptor; [1]) is on record?
**A.** 1 to 4.99 µM

**Q.** And the IC50 (human CB2 receptor; [2])?
**A.** 0.5 to 0.99 µM

**Q.** And the “Selectivity CB2” value (human CB2 receptor)?
**A.** 2.35

**Q.** For `CCCCCc1cc(O)c(C/C=C(\C)CCC=C(C)C)c(O)c1C(=O)NCc1ccccc1` [Compound 14, N-benzyl-3-(3,7-dimethylocta-2,6-dien-1-yl)-2,4-dihydroxy-6-pentylbenzamide], which IC50 (human CB1 receptor; [1]) is on record?
**A.** > 5 µM

**Q.** What about the IC50 (human CB2 receptor; [2]) of the same compound?
**A.** 1 to 4.99 µM

**Q.** And the “Selectivity CB2” value (human CB2 receptor)?
**A.** 8.57

**Q.** With `CCCCCc1cc(O)c(C/C=C(\C)CCC=C(C)C)c(O)c1C(=O)N1CCOCC1` [Compound 39] as the compound, how does the IC50 (human CB1 receptor; [1]) read?
**A.** > 5 µM

**Q.** And the IC50 (human CB2 receptor; [2])?
**A.** < 0.5 µM

**Q.** And the “Selectivity CB2” value (human CB2 receptor)?
**A.** 24.32

**Q.** What does the source list for `CCCCCc1cc(O)c(C/C=C(\C)CCC=C(C)C)c(O)c1C(=O)N1CCCC1` [Compound 41, (3-(3,7-dimethylocta-2,6-dien-1-yl)-2,4-dihydroxy-6-pentylphenyl)(pyrrolidin-1-yl)methanone]?
**A.** IC50 (human CB1 receptor; [1]): > 5 µM; IC50 (human CB2 receptor; [2]): 1 to 4.99 µM; Selectivity CB2 (human CB2 receptor): 11.54

**Q.** With `CCCCCc1cc(O)c(C/C=C(\C)CCC=C(C)C)c(O)c1C(=O)N(CC)CC` [Compound 50, 3-(3,7-dimethylocta-2,6-dien-1-yl)-N,N-diethyl-2,4-dihydroxy-6-pentylbenzamide] as the compound, how does the IC50 (human CB1 receptor) read?
**A.** > 5 µM

**Q.** And the IC50 (human CB2 receptor)?
**A.** 1 to 4.99 µM

**Q.** And the “Selectivity CB2” value (human CB2 receptor)?
**A.** 4.80

**Q.** Which IC50 (human CB1 receptor; [1]) does the source give for `CCCCCc1cc(O)c(CC=C(C)CCC=C(C)C)c(O)c1CN(C)C(=O)OC` [Compound 58, methyl (3-(3,7-dimethylocta-2,6-dien-1-yl)-2,4-dihydroxy-6-pentylbenzyl)(methyl)carbamate] here?
**A.** 1 to 4.99 µM

**Q.** And the IC50 (human CB2 receptor; [2])?
**A.** < 0.5 µM

**Q.** What about the “Selectivity CB2” value (human CB2 receptor) of the same compound?
**A.** 30.00

**Q.** How did the IC50 (human CB1 receptor; [1]) turn out when `CCCCCc1c(CN(C)C(=O)OC)c(O)c(CC=C(C)CCC=C(C)C)c(O)c1CN(C)C(=O)OC` [Compound 59, dimethyl ((5-(3,7-dimethylocta-2,6-dien-1-yl)-4,6-dihydroxy-2-pentyl-1,3-phenylene)bis(methylene))bis(methylcarbamate)] was run?
**A.** 0.5 to 0.99 µM

**Q.** What about the IC50 (human CB2 receptor; [2]) of the same compound?
**A.** 0.5 to 0.99 µM

**Q.** What about the “Selectivity CB2” value (human CB2 receptor) of the same compound?
**A.** 1.49

**Q.** With `CCCCCc1cc(O)c(C/C=C(\C)CCC=C(C)C)c(O)c1C(=O)Nc1ccc(F)cc1` [Compound 60, 3-(3,7-dimethylocta-2,6-dien-1-yl)-N-(4-fluorophenyl)-2,4-dihydroxy-6-pentyl benzamide] as the compound, how does the IC50 (human CB1 receptor; [1]) read?
**A.** 1 to 4.99 µM

**Q.** And the IC50 (human CB2 receptor; [2])?
**A.** < 0.5 µM

**Q.** What about the “Selectivity CB2” value (human CB2 receptor) of the same compound?
**A.** 2.52

**Q.** Which results are given for `CCCCCc1cc(O)c(C/C=C(\C)CCC=C(C)C)c(O)c1C(=O)NCc1ccc(F)cc1` [Compound 61, 3-(3,7-dimethylocta-2,6-dien-1-yl)-N-(4-fluorobenzyl)-2,4-dihydroxy-6-pentylbenzamide]?
**A.** IC50 (human CB1 receptor; [1]): 0.5 to 0.99 µM; IC50 (human CB2 receptor; [2]): < 0.5 µM; Selectivity CB2 (human CB2 receptor): 118.29

**Q.** How did the IC50 (human CB1 receptor; [1]) turn out when `CCCCCc1cc(O)c(C/C=C(\C)CCC=C(C)C)c(O)c1C(=O)NCc1cccnc1` [Compound 62, 3-(3,7-dimethylocta-2,6-dien-1-yl)-2,4-dihydroxy-6-pentyl-N-(pyridin-3-ylmethyl)benzamide] was run?
**A.** 1 to 4.99 µM

**Q.** And the IC50 (human CB2 receptor; [2])?
**A.** 0.5 to 0.99 µM

**Q.** And the “Selectivity CB2” value (human CB2 receptor)?
**A.** 4.71

**Q.** For `CCCCCc1cc(O)c(C/C=C(\C)CCC=C(C)C)c(O)c1C(=O)Nc1cccnc1` [Compound 63, 3-(3,7-dimethylocta-2,6-dien-1-yl)-2,4-dihydroxy-6-pentyl-N-(pyridin-3-yl) benzamide], which IC50 (human CB1 receptor) is on record?
**A.** 1 to 4.99 µM

**Q.** What about the IC50 (human CB2 receptor) of the same compound?
**A.** 1 to 4.99 µM

**Q.** And the “Selectivity CB2” value (human CB2 receptor)?
**A.** 2.20
